Results: ChEMBL document CHEMBL1201862, “PubChem BioAssay data set” (2004)
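Five compound concentrations were applied to cells in 96-well plates for 48 hours; endpoints were derived by simple linear interpolation of the resulting dose-response curve. GI50 is the concentration that inhibits growth by half.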 Active and inactive are the calls of the source. Rule as the data show it: active = GI50 up to about 1.1 µM and inactive = higher.

Tests used:
Assay in all cases: growth of human tumour cells (NCI), 48 h
A549 = test system: A549
HCC 2998 = test system: HCC 2998
HOP-62 = test system: HOP-62
IGROV-1 = test system: IGROV-1
K562 = test system: K562
LXFL 529 = test system: LXFL 529
M14 = test system: M14
NCI-H522 = test system: NCI-H522
OVCAR-5 = test system: OVCAR-5
SF-268 = test system: SF-268
SK-MEL-28 = test system: SK-MEL-28
SK-MEL-5 = test system: SK-MEL-5
SR = test system: SR
SW-620 = test system: SW-620
UACC-257 = test system: UACC-257
CAKI-1 = test system: CAKI-1

Measured: GI50

COC(=O)C(CCCC1(c2ccccc2)OCCO1)C(C)=O (stereo not drawn)
inactive: A549 > 100 µM | HCC 2998 > 100 µM | HOP-62 > 100 µM | IGROV-1 > 100 µM | K562 91.8 µM | LXFL 529 > 100 µM | M14 > 100 µM | NCI-H522 64 µM | OVCAR-5 > 100 µM | SF-268 > 100 µM | SK-MEL-28 > 100 µM | SK-MEL-5 66.4 µM | SR 85.1 µM | SW-620 > 100 µM | UACC-257 90.2 µM

CCOC(=O)NC(=O)c1cn(CCN2CCN(C(=O)NCCCCCCNC(=O)N3CCN(CCn4cc(C(=O)NC(=O)OCC)c(=O)[nH]c4=O)CC3)CC2)c(=O)[nH]c1=O
inactive: A549 > 100 µM | HCC 2998 > 100 µM | HOP-62 > 100 µM | IGROV-1 > 100 µM | K562 > 100 µM | LXFL 529 > 100 µM | M14 > 100 µM | NCI-H522 > 100 µM | OVCAR-5 > 100 µM | SF-268 > 100 µM | SK-MEL-28 > 100 µM | SK-MEL-5 > 100 µM | SR > 100 µM | SW-620 > 100 µM | UACC-257 > 100 µM

C=CCOC(C)n1c(C)cc(=O)n(C(C)OCC=C)c1=O (stereo not drawn)
inactive: A549 > 100 µM | HCC 2998 > 100 µM | HOP-62 > 100 µM | IGROV-1 > 100 µM | K562 > 100 µM | LXFL 529 > 100 µM | M14 > 100 µM | NCI-H522 > 100 µM | SF-268 > 100 µM | SK-MEL-28 > 100 µM | SK-MEL-5 > 100 µM | SR > 100 µM | SW-620 > 100 µM | UACC-257 > 100 µM

Cc1ccc(C)c(N2C(=O)C(=O)C(c3nc4ccccc4o3)/C(=N/N)C2=O)c1 (stereo not drawn)
inactive: A549 > 100 µM | CAKI-1 > 100 µM | HCC 2998 > 100 µM | HOP-62 > 100 µM | IGROV-1 > 100 µM | LXFL 529 > 100 µM | M14 > 100 µM | NCI-H522 > 100 µM | SF-268 > 100 µM | SK-MEL-28 > 100 µM | SK-MEL-5 > 100 µM | SR > 100 µM | SW-620 > 100 µM | UACC-257 > 100 µM

COc1cc(/C=C\c2ccc(OC(C)=O)cc2)cc(OC)c1OC
inactive: A549 6.62 µM | CAKI-1 29.1 µM | HCC 2998 8.13 µM | HOP-62 5.32 µM | IGROV-1 7.59 µM | K562 2.59 µM | LXFL 529 6.1 µM | M14 4.49 µM | NCI-H522 2.92 µM | OVCAR-5 62.7 µM | SF-268 9.59 µM | SK-MEL-28 1.44 µM | SR 5.04 µM | SW-620 3.36 µM | UACC-257 2.48 µM

CC(Oc1cc2oc(=O)cc(-c3ccccc3)c2cc1Cl)C(=O)O (stereo not drawn)
inactive: A549 > 100 µM | CAKI-1 > 100 µM | HCC 2998 > 100 µM | HOP-62 > 100 µM | IGROV-1 > 100 µM | K562 > 100 µM | LXFL 529 > 100 µM | M14 > 100 µM | NCI-H522 > 100 µM | SF-268 > 100 µM | SK-MEL-28 > 100 µM | SK-MEL-5 > 100 µM | SR > 100 µM | SW-620 > 100 µM | UACC-257 > 100 µM

CC1=C(C(=O)Nc2ccccc2)C(c2ccc([N+](=O)[O-])cc2)C(C(=O)Nc2ccccc2)=C(C)N1
inactive: A549 34 µM | HCC 2998 20.2 µM | HOP-62 39.1 µM | IGROV-1 28.6 µM | K562 15.4 µM | LXFL 529 17.4 µM | M14 18.1 µM | NCI-H522 18.3 µM | OVCAR-5 40.9 µM | SF-268 22.6 µM | SK-MEL-28 31.5 µM | SK-MEL-5 24.1 µM | SR 18.4 µM | SW-620 15.2 µM | UACC-257 18.5 µM
